Common to all, as to type: cell-based, human
For assay [1], the system named is MRC5 cells. In words: TUNEL assay detecting DNA fragmentation (nicked DNA) in young and old MRC5 cells. To be noted: Ara-C 10 μM, 24 hr, FIG. 1B. The text has this:
(§1) Ara-C, bafilomycin A1 and rapamycin were from Sigma-Aldrich (St. Louis, Mo.); SA β-gal Staining Kit was from Cell Signaling (Danvers, Mass.); TUNEL Apo-Green detection reaction mixture was from Biomake (Houston, Tex.).

Assay [2] deals with MRC5 cells. In words: RT-qPCR expression of IFNI-inducible, inflammatory and cell-cycle genes in young and old cells. To be noted: old MRC5 cells. How it is done: 0.25-1 μg of total RNA was reverse-transcribed with High Capacity cDNA Reverse Transcription kit (Applied Biosystems). Quantitative PCR was then performed using LightCyler® 480 SYBR Master I reagents (Roche) on LightCyler® 96 instrument. Transcript levels were normalized to B2M or GAPDH. Primer pairs used are listed below.

Assay [3] concerns MRC5 cells. The assay is described as follows: SA-β-gal activity staining in young and old MRC5 cells. The following applies: aged MRC5 cells; Ara-C 10 μM, 24 h; FIG. 6F.
From the text: as §1

Assay [4] deals with MRC5 cells. The assay is described as follows: Immunofluorescence anti-dsDNA staining of nuclear and cytosolic DNA in young and old MRC5 cells. The following applies: 24 hr. As for the experimental part: Cells were cultured in Lab-Tek II 8-well chamber slides, fixed with 4% PFA (10 min), permeabilized with 0.5% Triton X-100 (5 min), then blocked and stained with antibodies against: dsDNA (Santa Cruz, 1:500), 7H2AX, NUP98, pTBK1 (both Cell Signaling, 1:200), LC3 (Novus Biologicals, 1:200) or biotin-LAMP1 (BioLegend, 1:200), followed by fluorescent secondary antibodies (45 min). Methanol fixation was used for anti-pIRF3 (Cell Signaling, 1:200) staining.
Nuclear and cytosolic DNA signals from 5 of 10× or 20× images (˜50-200 cells per image) were quantified using Fiji. Region of interest (ROI) was defined in each image and threshold set to measure fluorescence above background. Nuclear ROI was defined by DAPI staining and its intensity subtracted from total fluorescence to determine cytoplasmic signal. Quantitative fluorescence was presented as integrated density per cell with cell number determined by particle count of DAPI.

The mark [5] stands for this setting: bafilomycin 20 nM, 8 hr, FIG. 2F.

Molecules are shown by their SMILES.

Turning to `Nc1ccn([C@@H]2O[C@H](CO)[C@@H](O)[C@@H]2O)c(=O)n1` [Ara-C, cytarabine], the “nicked DNA (TUNEL staining) in old cells” value in assay [1] is reported as “more intense”. Further, in assay [2] (Ara-C 10 μM, 24 hr, FIG. 2A), the “CXCL10 expression (RT-qPCR)” value is “further increased”, the “IL-6 expression (RT-qPCR)” value is on record as “further increased” and the “MX1 expression (RT-qPCR)” value is listed as “further increased”. In addition, in assay [3], the “percentage of SA-β-gal+ cells” value is reported as “further increased”. Also, in assay [4] (old MRC5 cells, Ara-C 10 μM, FIG. 1C), the “nuclear DNA in old cells (anti-dsDNA IF)” value was “more nuclear DNA”. The “extranuclear DNA in young cells (anti-dsDNA IF)” value in assay [4] (young MRC5 cells, Ara-C 10 μM, FIG. 1C) was “more extranuclear DNA”.

In the case of `CO/C1=C\C(C)=C\[C@@H](C)[C@@H](O)[C@@H](C)C/C(C)=C/C=C/[C@H](OC)[C@@H]([C@@H](C)[C@@H](O)[C@H](C)[C@@]2(O)C[C@@H](O)[C@H](C)[C@@H](C(C)C)O2)OC1=O` [bafilomycin A1], in assay [2] (setting [5]), the “CXCL10 expression (RT-qPCR)” value is given as “increased levels” and the “MX1 expression (RT-qPCR)” value is “increased levels”.

For `CCC(=C/[C@H](C)C/C=C/C(C)=C/[C@@H](C)C(=O)[C@@H](C)[C@H](O)[C@@H](C)C/C(C)=C/C(=O)O)/C=C/[C@@H]1OC(=O)C=C[C@@H]1C` [leptomycin B], the “dsDNA staining in nuclei (anti-dsDNA IF)” value in assay [4] (LMB-treated cells, 20 nM, FIG. 1D) was “some increase”. In addition, the “cytosolic DNA in old cells (anti-dsDNA IF)” value in assay [4] (old MRC5 cells, LMB 20 nM, FIG. 1D) is “dramatic reduction”.

For the origin of these results see patent publication US11766446B2, “Treatment of aging-associated conditions by DNA degradation” (The General Hospital Corporation, priority 2018, dated 2023).
